According to the RepoRT retention time repository (doi:10.1021/acs.analchem.1c00972):

Columns and labels:
Settings in all cases: stereoisomer not certain
[1] = RP, Phenomenex Synergi Polar-RP, 100 × 3 mm, 2.5 µm, 40 °C, 0.4 mL/min, estimated dead time 1.1 min; A: water + 1 mM ammonium fluoride; B: methanol + 1 mM ammonium fluoride; C: acetonitrile; D: 50% isopropanol + 50% acetone; gradient (min/%B/%C/%D) 0/5/0/0 2/5/0/0 8/95/0/0 12/80/15/0 19/25/70/0 19.5/0/25/70 21.5/0/25/70 22.5/0/25/0 23/5/0/0
[2] = RP, Waters ACQUITY UPLC BEH C18, 100 × 1 mm, 1.7 µm, 50 °C, 0.3 mL/min, estimated dead time 0.17 min; A: water + 0.1% formic acid + 20 mM ammonium formate; B: methanol + 0.1% formic acid + 20 mM ammonium formate; gradient (min/%B) 0/0 15/100 21/100 22/0 30/0
[3] = RP, Waters ACQUITY UPLC BEH C18, 100 × 1 mm, 1.7 µm, 50 °C, 0.3 mL/min, estimated dead time 0.17 min; A: water + 10 mM ammonium bicarbonate; B: 10% water + 90% methanol + 10 mM ammonium bicarbonate; gradient (min/%B) 0/0 15/100 21/100 22/0 30/0

Row | SMILES | LC retention time [1] | LC retention time [2] | LC retention time [3]
1 | O=S(=O)(O)c1nc2ccccc2s1 [2-Benzothiazolesulfonic acid] | 6.31 min | – | –
2 | O=c1cc[nH]c(=S)[nH]1 [2-thiouracil] | 2.53 min | – | –
3 | Oc1cccc2n[nH]nc12 [4-Hydroxybenzotriazole] | 7 min | – | –
4 | O=S(=O)(O)CCC(F)(F)C(F)(F)C(F)(F)C(F)(F)C(F)(F)C(F)(F)F [6-2fluorotelomer sulfonic acid] | 8.97 min | – | –
5 | S=c1nc[nH]c2nc[nH]c12 [6-Mercaptopurine] | 3.32 min | – | –
6 | Oc1ccc(Cl)cc1Cl [24-Dichlorophenol] | 8.49 min | – | –
7 | O=C(O)COc1ccc(Cl)cc1Cl [24-Dichlorophenoxyacetic acid] | 8.06 min | – | –
8 | O=[N+]([O-])c1ccc(O)c([N+](=O)[O-])c1 [24-Dinitrophenol] | 7.62 min | – | –
9 | Nc1ccc(S(=O)(=O)O)c(N)c1 [24-diaminobenzenesulfonic acid] | 1.48 min | – | –
10 | O=S(=O)(O)c1ccc2ccc(S(=O)(=O)O)cc2c1 [27-Naphthalenedisulfonic acid] | 1.65 min | – | –
11 | Oc1cc(Cl)c(Cl)c(Cl)c1 [345-trichlorophenol] | 10.8 min | – | –
12 | O=c1[nH]c(Cl)c(Cl)cc1Cl [356-Trichloro-2-pyridinol] | 9.23 min | – | –
13 | O=C(O)Cc1ccc(S(=O)(=O)O)cc1 [(4-Sulfophenyl)acetic acid] | 1.82 min | – | –
14 | Nc1nc2c(ncn2COCCO)c(=O)[nH]1 [Acyclovir] | 3.17 min | – | –
15 | CC(C)c1c(C(=O)Nc2ccccc2)c(-c2ccccc2)c(-c2ccc(F)cc2)n1CCC(O)CC(O)CC(=O)O (centres undefined) [Atorvastatin] | 10.4 min | – | –
16 | COc1cc(O)c(C(=O)c2ccccc2)cc1S(=O)(=O)O [Benzophenone-4] | 8.32 min | – | –
17 | CC(C)(Oc1ccc(CCNC(=O)c2ccc(Cl)cc2)cc1)C(=O)O [Bezafibrate] | 9.33 min | – | –
18 | CC(O)(CS(=O)(=O)c1ccc(F)cc1)C(=O)Nc1ccc(C#N)c(C(F)(F)F)c1 (centres undefined) [Bicalutamide] | 10.7 min | – | –
19 | O=S(=O)(c1ccc(O)cc1)c1ccc(O)cc1 [Bisphenol S] | 9.36 min | – | –
20 | N#Cc1cc(Br)c(O)c(Br)c1 [Bromoxynil] | 8.68 min | – | –
21 | Cc1ccc(-c2cc(C(F)(F)F)nn2-c2ccc(S(N)(=O)=O)cc2)cc1 [Celecoxib] | 11.1 min | – | –
22 | CC(C)(Oc1ccc(Cl)cc1)C(=O)O [Clofibric acid] | 8.57 min | – | –
23 | O=c1c(-c2ccc(O)cc2)coc2cc(O)ccc12 [Daidzein] | 9.89 min | – | –
24 | O=C(O)Cc1ccccc1Nc1c(Cl)cccc1Cl [Diclofenac] | 10.1 min | – | –

Row | SMILES | LC retention time [1] | LC retention time [2] | LC retention time [3]
25 | COCCN(C(=O)CS(=O)(=O)O)c1c(C)cccc1C [Dimethachlor ESA] | 7.88 min | – | –
26 | COCCN(C(=O)C(=O)O)c1c(C)cccc1C [Dimethachlor OA] | 7.5 min | – | –
27 | N#Cc1nn(-c2c(Cl)cc(C(F)(F)F)cc2Cl)c(N)c1S(=O)C(F)(F)F (centres undefined) [Fipronil] | 10.9 min | – | –
28 | O=C(NC(=O)c1c(F)cccc1F)Nc1ccc(Oc2ccc(C(F)(F)F)cc2Cl)cc1F [Flufenoxuron] | 11.9 min | – | –
29 | NS(=O)(=O)c1cc(C(=O)O)c(NCc2ccco2)cc1Cl [Furosemide] | 8.45 min | – | –
30 | O=c1c(-c2ccc(O)cc2)coc2cc(O)cc(O)c12 [Genistein] | 10.3 min | – | –
31 | CCC1=C(C)CN(C(=O)NCCc2ccc(S(=O)(=O)NC(=O)NC3CCC(C)CC3)cc2)C1=O (centres undefined) [Glimepiride] | 11.3 min | – | –
32 | CC(C(=O)O)c1cccc(C(=O)c2ccccc2)c1 (centres undefined) [Ketoprofen] | 9.75 min | – | –
33 | CCCC1CC(C(=O)NC(C(C)O)C2OC(SC)C(O)C(O)C2O)N(C)C1 (centres undefined) [Lincomycin] | 9.98 min | – | –
34 | CCCCc1nc(Cl)c(CO)n1Cc1ccc(-c2ccccc2-c2nn[nH]n2)cc1 [Losartan] | 9.49 min | – | –
35 | Cc1cc(Cl)ccc1OCC(=O)O [MCPA] | 8.16 min | – | –
36 | Cc1cc(Cl)ccc1OC(C)C(=O)O (centres undefined) [Mecoprop] | 8.57 min | – | –
37 | Cc1cccc(Nc2ccccc2C(=O)O)c1C [Mefenamic acid] | 10.6 min | – | –
38 | Cc1cccc(C)c1N(Cn1cccn1)C(=O)CS(=O)(=O)O [Metazachlor ESA] | 7.83 min | – | –
39 | CCc1cccc(C)c1N(C(=O)C(=O)O)C(C)COC (centres undefined) [Metolachlor OA] | 8.42 min | – | –
40 | COc1c(C)c2c(c(O)c1CC=C(C)CCC(=O)O)C(=O)OC2 [Mycophenolic acid] | 10.3 min | – | –
41 | CCOC(=O)C1=C(C)NC(C)=C(C(=O)OC)C1c1cccc([N+](=O)[O-])c1 (centres undefined) [Nitrendipin] | 11.2 min | – | –
42 | O=C1CN(N=Cc2ccc([N+](=O)[O-])o2)C(=O)N1 [Nitrofurantoin] | 8.69 min | – | –
43 | CCCN(CCC)c1c([N+](=O)[O-])cc(S(N)(=O)=O)cc1[N+](=O)[O-] [Oryzalin] | 11.2 min | – | –
44 | O=c1[nH]c(=O)c2cn[nH]c2[nH]1 [Oxypurinol] | 2.44 min | – | –
45 | O=S(=O)(O)c1ccc2nc(-c3ccccc3)[nH]c2c1 [Phenylbenzimidazole sulfonic acid] | 7.44 min | – | –
46 | NC(=O)c1ccccc1C(=O)O [Phthalamic acid] | 2.24 min | – | –
47 | CCC(=O)Nc1ccc(Cl)c(Cl)c1 [Propanil] | 10.6 min | – | –
48 | O=C(c1ccc(OCCN2CCCCC2)cc1)c1c(-c2ccc(O)cc2)sc2cc(O)ccc12 [Raloxifene] | 16.2 min | – | –

Row | SMILES | LC retention time [1] | LC retention time [2] | LC retention time [3]
49 | OCC1OC(OC2(CCl)OC(CCl)C(O)C2O)C(O)C(O)C1Cl (centres undefined) [Sucralose] | 8 min | – | –
50 | CS(=O)(=O)c1ccc(C(=O)C2C(=O)CCCC2=O)c(Cl)c1 [Sulcotrione] | 7.69 min | – | –
51 | CC(Cl)COP(=O)(OCC(C)Cl)OCC(C)Cl (centres undefined) [Tris(2-chloropropyl) phosphate] | – | 14.4 min | 14.6 min
52 | COc1nc(NC(=O)NS(=O)(=O)c2ccccc2C(F)(F)F)nc(C(F)(F)F)n1 [Tritosulfuron] | – | 13.8 min | 11.9 min
53 | CCC1OC(=O)CC(O)C(C)C(OC2OC(C)C(OC3CC(C)(O)C(O)C(C)O3)C(N(C)C)C2O)C(CC=O)CC(C)C(=O)C=CC(C)=CC1COC1OC(C)C(O)C(OC)C1OC (centres undefined) [Tylosin] | – | 13.1 min | 15.5 min
54 | O=c1ccc2ccc(O)cc2o1 [Umbelliferone] | – | 8.73 min | 6.78 min
55 | CC(C)C(N)C(=O)OCC(CO)OCn1cnc2c(=O)[nH]c(N)nc21 (centres undefined) [Valganciclovir] | – | 5.17 min | 7.16 min
56 | CCCC(CCC)C(=O)O [Valproic acid] | – | 14.2 min | 10.2 min
57 | CNC(=O)C(C)SCCSP(=O)(OC)OC (centres undefined) [Vamidothion (Vamidoate)] | – | 9.33 min | 9.45 min
58 | CNC(CC(C)C)C(=O)NC1C(=O)NC(CC(N)=O)C(=O)NC2C(=O)NC3C(=O)NC(C(=O)NC(C(=O)O)c4cc(O)cc(O)c4-c4cc3ccc4O)C(O)c3ccc(c(Cl)c3)Oc3cc2cc(c3OC2OC(CO)C(O)C(O)C2OC2CC(C)(N)C(O)C(C)O2)Oc2ccc(cc2Cl)C1O (centres undefined) [Vancomycin] | – | 7.04 min | 8.6 min
59 | CCCc1nc(C)c2c(=O)[nH]c(-c3cc(S(=O)(=O)N4CCN(CC)CC4)ccc3OCC)nn12 [Vardenafil] | – | 12.2 min | 14.8 min
60 | COc1ccc(CCN(C)CCCC(C#N)(c2ccc(OC)c(OC)c2)C(C)C)cc1OC (centres undefined) [Verapamil] | – | 12.4 min | 15.9 min
61 | N#CC1CCCN1C(=O)CNC12CC3CC(CC(O)(C3)C1)C2 (centres undefined) [Vildagliptin] | – | 6.31 min | 10.1 min
62 | CCC12CCCN3CCc4c(n(c5ccccc45)C(O)(C(=O)OC)C1)C32 (centres undefined) [Vincamin] | – | 9.43 min | 14.6 min
63 | COC(=O)C1C(O)CCC2CN3CCc4c([nH]c5ccccc45)C3CC21 (centres undefined) [Yohimbine] | – | 9.26 min | 14.1 min
64 | CC1CCCC(=O)CCCC=Cc2cc(O)cc(O)c2C(=O)O1 (centres undefined) [Zearalenone] | – | 14.4 min | 14.1 min
65 | O=C1Cc2cc(CCN3CCN(c4nsc5ccccc45)CC3)c(Cl)cc2N1 [Ziprasidone] | – | 11.3 min | 16.1 min
66 | CC1=C2C3OC(=O)C(C)C3CCC2(C)C=CC1=O (stereo not drawn) [alpha-Santonin] | – | 11.3 min | 11.5 min
67 | CC1CCCC(O)CCCC=Cc2cc(O)cc(O)c2C(=O)O1 (stereo not drawn) [beta Zearalenol] | – | 13.4 min | 13.3 min
68 | O=C1CCCCCN1 [epsilon-Caprolactam] | – | 6.99 min | 7 min
69 | OC(Cn1cncn1)(Cn1cncn1)c1ccc(F)cc1F [fluconazole] | – | 9.47 min | 9.58 min
70 | Nc1c(Cl)cnn(-c2ccccc2)c1=O [iso-Chloridazon] | – | 11.4 min | 11.6 min
71 | Cc1ccc(S(=O)(=O)O)c(C)c1 [m-Xylene-4-sulfonic acid] | – | 7.92 min | 7.83 min
72 | CCn1cc(C(=O)O)c(=O)c2cc(F)c(N3CCNCC3)cc21 [norfloxacin] | – | 8.16 min | 7.5 min
